Reference: ChEMBL document CHEMBL1146703, “Mannopeptimycin esters and carbonates, potent antibiotic agents against drug-resistant bacteria” (2004)
Values after ≈ are worked out from the molar mass of the structure shown.

Tests used:
Enterococcus faecalis [1] = experiment: Antibacterial activity against Enterococcus faecalis; Range is 4-32; assay type: functional
Escherichia coli = experiment: Antibacterial activity against Escherichia coli at </=64 ug/mL; No activity; assay type: functional, organism-based
Staphylococcus aureus [2] = experiment: Antibacterial activity against Staphylococcus aureus; assay type: functional
Enterococcus faecalis [3] = experiment: Antibacterial activity against Enterococcus faecalis; Range is 64->64; assay type: functional
Staphylococcus aureus [4] = experiment: Antibacterial activity against Staphylococcus aureus; Range is 8-16; assay type: functional
Enterococcus faecalis [5] = experiment: Antibacterial activity against Enterococcus faecalis; Range is 1-4; assay type: functional
Mus musculus = experiment: Antibacterial activity against Staphylococcus aureus infection in mouse after i.v. administration (Vancomycin, ED50= 1.0 mg/kg ); assay type: functional; settings: route intravenous
Staphylococcus aureus [6] = experiment: Antibacterial activity against Staphylococcus aureus; Range is 0.5-1; assay type: functional
Enterococcus faecalis [7] = experiment: Antibacterial activity against Enterococcus faecalis; Range is 4-16; assay type: functional
Staphylococcus aureus [8] = experiment: Antibacterial activity against Staphylococcus aureus; Range is 0.5-2; assay type: functional
Enterococcus faecalis [9] = experiment: Antibacterial activity against Enterococcus faecalis; Range is 4-8; assay type: functional
Staphylococcus aureus [10] = experiment: Antibacterial activity against Staphylococcus aureus; Range is 1-2; assay type: functional
Enterococcus faecalis [11] = experiment: Antibacterial activity against Enterococcus faecalis; Range is 8-16; assay type: functional
Staphylococcus aureus [12] = experiment: Antibacterial activity against Staphylococcus aureus; Range is 2-8; assay type: functional
Enterococcus faecalis [13] = experiment: Antibacterial activity against Enterococcus faecalis; Range is 1-2; assay type: functional
Enterococcus faecalis [14] = experiment: Antibacterial activity against Enterococcus faecalis; Range is 16-64; assay type: functional
Staphylococcus aureus [15] = experiment: Antibacterial activity against Staphylococcus aureus; Range is 4-8; assay type: functional
Staphylococcus aureus [16] = experiment: Antibacterial activity against Staphylococcus aureus; Range is 2-4; assay type: functional

Q: CCCC(CCC)C(=O)OC[C@H]1O[C@H](Oc2ccc(C[C@H]3NC(=O)[C@H]([C@@H](C)c4ccccc4)NC(=O)CNC(=O)[C@H](CO)NC(=O)[C@@H]([C@@H](O)[C@@H]4CNC(N)N4[C@H]4O[C@H](CO)[C@@H](O)[C@H](O)[C@@H]4O)NC(=O)[C@H]([C@@H](O)[C@@H]4CNC(N)N4)NC3=O)cc2)[C@@H](O)[C@@H](O)[C@@H]1O[C@H]1O[C@H](CO)[C@@H](O)[C@H](O)[C@@H]1O (stereo not given in full) was tested. Which MIC (Enterococcus faecalis [1]) did it give?
A: The MIC was 32 µg/mL (≈ 22.4 µM).

Q: What about the MIC (Escherichia coli) of the same compound?
A: The MIC was “No activity”.

Q: And the MIC (Staphylococcus aureus [2])?
A: The MIC was 4 µg/mL (≈ 2.81 µM).

Q: How did the MIC (Escherichia coli) turn out when C[C@@H](c1ccccc1)[C@@H]1NC(=O)CNC(=O)[C@H](CO)NC(=O)[C@@H]([C@@H](O)[C@@H]2CNC(N)N2[C@H]2O[C@H](CO)[C@@H](O)[C@H](O)[C@@H]2O)NC(=O)[C@H]([C@@H](O)[C@@H]2CNC(N)N2)NC(=O)[C@@H](Cc2ccc(O[C@H]3O[C@H](COC(=O)Cc4ccccc4)[C@@H](O[C@H]4O[C@H](CO)[C@@H](O)[C@H](O)[C@@H]4O)[C@H](O)[C@@H]3O)cc2)NC1=O (stereo not given in full) was run?
A: Its MIC is “No activity”.

Q: And the MIC (Enterococcus faecalis [3])?
A: The MIC was 64 µg/mL (≈ 45.2 µM).

Q: And the MIC (Staphylococcus aureus [4])?
A: The MIC was 16 µg/mL (≈ 11.3 µM).

Q: With CCCCCCC(=O)OC[C@H]1O[C@H](O[C@H]2[C@H](O)[C@H](O)[C@@H](Oc3ccc(C[C@H]4NC(=O)[C@H]([C@@H](C)c5ccccc5)NC(=O)CNC(=O)[C@H](CO)NC(=O)[C@@H]([C@@H](O)[C@@H]5CNC(N)N5[C@H]5O[C@H](CO)[C@@H](O)[C@H](O)[C@@H]5O)NC(=O)[C@H]([C@@H](O)[C@@H]5CNC(N)N5)NC4=O)cc3)O[C@@H]2CO)[C@@H](O)[C@@H](O)[C@@H]1O (stereo not given in full) as the compound, how does the MIC (Enterococcus faecalis [5]) read?
A: Its MIC is 4 µg/mL (≈ 2.83 µM).

Q: And the MIC (Escherichia coli)?
A: The MIC was “No activity”.

Q: What about the ED50 (Mus musculus) of the same compound?
A: Its ED50 is 4 mg/kg.

Q: And the MIC (Staphylococcus aureus [6])?
A: The MIC was 1 µg/mL (≈ 0.708 µM).

Q: What does the source list for CCCCCCC(=O)OC[C@H]1O[C@H](Oc2ccc(C[C@H]3NC(=O)[C@H]([C@@H](C)c4ccccc4)NC(=O)CNC(=O)[C@H](CO)NC(=O)[C@@H]([C@@H](O)[C@@H]4CNC(N)N4[C@H]4O[C@H](CO)[C@@H](O)[C@H](O)[C@@H]4O)NC(=O)[C@H]([C@@H](O)[C@@H]4CNC(N)N4)NC3=O)cc2)[C@@H](O)[C@@H](O)[C@@H]1O[C@H]1O[C@H](CO)[C@@H](O)[C@H](O)[C@@H]1O (stereo not given in full)?
A: MIC (Enterococcus faecalis [7]): 16 µg/mL (≈ 11.3 µM); MIC (Escherichia coli): No activity; MIC (Staphylococcus aureus [8]): 2 µg/mL (≈ 1.42 µM)

Q: With CCCCCC(=O)OC[C@H]1O[C@H](O[C@H]2[C@H](O)[C@H](O)[C@@H](Oc3ccc(C[C@H]4NC(=O)[C@H]([C@@H](C)c5ccccc5)NC(=O)CNC(=O)[C@H](CO)NC(=O)[C@@H]([C@@H](O)[C@@H]5CNC(N)N5[C@H]5O[C@H](CO)[C@@H](O)[C@H](O)[C@@H]5O)NC(=O)[C@H]([C@@H](O)[C@@H]5CNC(N)N5)NC4=O)cc3)O[C@@H]2CO)[C@@H](O)[C@@H](O)[C@@H]1O (stereo not given in full) as the compound, how does the MIC (Enterococcus faecalis [9]) read?
A: Its MIC is 8 µg/mL (≈ 5.72 µM).

Q: And the MIC (Escherichia coli)?
A: Its MIC is “No activity”.

Q: And the ED50 (Mus musculus)?
A: The ED50 was 4 mg/kg.

Q: What about the MIC (Staphylococcus aureus [10]) of the same compound?
A: Its MIC is 2 µg/mL (≈ 1.43 µM).

Q: Which results are given for C[C@@H](c1ccccc1)[C@@H]1NC(=O)CNC(=O)[C@H](CO)NC(=O)[C@@H]([C@@H](O)[C@@H]2CNC(N)N2[C@H]2O[C@H](CO)[C@@H](O)[C@H](O)[C@@H]2O)NC(=O)[C@H]([C@@H](O)[C@@H]2CNC(N)N2)NC(=O)[C@@H](Cc2ccc(O[C@H]3O[C@H](CO)[C@@H](O[C@H]4O[C@H](COC(=O)OCc5ccccc5)[C@@H](O)[C@H](O)[C@@H]4O)[C@H](O)[C@@H]3O)cc2)NC1=O (stereo not given in full)?
A: MIC (Escherichia coli): No activity; MIC (Enterococcus faecalis [11]): 16 µg/mL (≈ 11.2 µM); MIC (Staphylococcus aureus [12]): 8 µg/mL (≈ 5.58 µM)

Q: With C[C@@H](c1ccccc1)[C@@H]1NC(=O)CNC(=O)[C@H](CO)NC(=O)[C@@H]([C@@H](O)[C@@H]2CNC(N)N2[C@H]2O[C@H](CO)[C@@H](O)[C@H](O)[C@@H]2O)NC(=O)[C@H]([C@@H](O)[C@@H]2CNC(N)N2)NC(=O)[C@@H](Cc2ccc(O[C@H]3O[C@H](CO)[C@@H](O[C@H]4O[C@H](COC(=O)C(c5ccccc5)c5ccccc5)[C@@H](O)[C@H](O)[C@@H]4O)[C@H](O)[C@@H]3O)cc2)NC1=O (stereo not given in full) as the compound, how does the MIC (Enterococcus faecalis [13]) read?
A: The MIC was 2 µg/mL (≈ 1.34 µM).

Q: What about the MIC (Escherichia coli) of the same compound?
A: The MIC was “No activity”.

Q: What about the ED50 (Mus musculus) of the same compound?
A: Its ED50 is 0.29 mg/kg.

Q: And the MIC (Staphylococcus aureus [6])?
A: Its MIC is 1 µg/mL (≈ 0.67 µM).

Q: C[C@@H](c1ccccc1)[C@@H]1NC(=O)CNC(=O)[C@H](CO)NC(=O)[C@@H]([C@@H](O)[C@@H]2CNC(N)N2[C@H]2O[C@H](CO)[C@@H](O)[C@H](O)[C@@H]2O)NC(=O)[C@H]([C@@H](O)[C@@H]2CNC(N)N2)NC(=O)[C@@H](Cc2ccc(O[C@H]3O[C@H](COC(=O)OCc4ccccc4)[C@@H](O[C@H]4O[C@H](CO)[C@@H](O)[C@H](O)[C@@H]4O)[C@H](O)[C@@H]3O)cc2)NC1=O (stereo not given in full) was tested. Which MIC (Enterococcus faecalis [14]) did it give?
A: Its MIC is 64 µg/mL (≈ 44.6 µM).

Q: What about the MIC (Escherichia coli) of the same compound?
A: Its MIC is “No activity”.

Q: What about the MIC (Staphylococcus aureus [15]) of the same compound?
A: Its MIC is 8 µg/mL (≈ 5.58 µM).

Q: Which MIC (Escherichia coli) does the source give for C[C@@H](c1ccccc1)[C@@H]1NC(=O)CNC(=O)[C@H](CO)NC(=O)[C@@H]([C@@H](O)[C@@H]2CNC(N)N2[C@H]2O[C@H](CO)[C@@H](O)[C@H](O)[C@@H]2O)NC(=O)[C@H]([C@@H](O)[C@@H]2CNC(N)N2)NC(=O)[C@@H](Cc2ccc(O[C@H]3O[C@H](CO)[C@@H](O[C@H]4O[C@H](COC(=O)Cc5ccccc5)[C@@H](O)[C@H](O)[C@@H]4O)[C@H](O)[C@@H]3O)cc2)NC1=O (stereo not given in full) here?
A: The MIC was “No activity”.

Q: And the MIC (Enterococcus faecalis [11])?
A: Its MIC is 16 µg/mL (≈ 11.3 µM).

Q: And the MIC (Staphylococcus aureus [16])?
A: Its MIC is 4 µg/mL (≈ 2.82 µM).
